Results published in patent US10815230B2, “Casein kinase 1 delta inhibitor” (ELECTROPHORETICS LIMITED, priority 2015, dated 2020).
Like-named read-outs stand apart in the source and are kept apart here.

Columns and labels:
[1] = tested on: TMHT (Thy-1 Mutated Human Tau) mouse; test: In-vivo efficacy, Morris Water Maze in tau transgenic mice; conditions: 30 mg/kg orally for 8 weeks
Excerpt: Various compounds of different classes (among them also antibody treatments) were positively tested for their efficacy in the TMHT model. Published examples are the γ-secretase modulator CHF5074 (Lanzilotta A, et al. The γ-secretase modulator CHF5074 reduces the accumulation of native hyperphosphoxylated tau in a transgenic mouse model of Alzheimer's disease. J Mol Neurosci. 45(1):22--33 (2010)), sodium selenate (Corcoran N M et al. Sodium selenate specifically activates PP2A phosphatase, dephosphorylates tau and reverses memory deficits in an Alzheimer's disease model. J Clin Neurosci. 17(8):1025-33 (2010)) and grape-seed polyphenol extract (Wang J et al. Grape derived polyphenols attenuate tau neuropathology in a mouse model of Alzheimer's disease. […] The effects of the compounds on learning in the Morris Mater Maze (MWM) were evaluated. Blood (plasma) and brain samples were collected after sacrification. Samples collected at sacrifice were plasma, left cortex, left hippocampus, right cortex, right hippocampus, remainder of left brain hemisphere, remainder of right brain hemisphere. In total 48 animals were used and allocated to 4 treatment groups. The start position of the mouse and the position of the platform (FIG. 1) in the different trials of the MWM were as indicated in Table 9: […] A descriptive statistical analysis was performed on all evaluated parameters. All data were represented as mean ±standard error of mean (SEM). MWM learning curve data of three trials per day were averaged. Over a period of 4 days, the ability to find a hidden platform using visual cues was measured performing 3 trials a day. By comparison of the learning curves, the cognitive abilities of the different treatment groups and possible drug effects were evaluated.

CDK11 = CDK11 (Homo sapiens, UniProt Q9BWU1); test: KINOMEscan binding assay; conditions: read-out: % Ctrl @ 10000 nM
CDK2 = CDK2 (Homo sapiens, UniProt P24941); test: KINOMEscan binding assay; conditions: read-out: % Ctrl @ 10000 nM
CLK3 = CLK3 (Homo sapiens, UniProt P49761); test: KINOMEscan binding assay; conditions: read-out: % Ctrl @ 10000 nM
FGFR1 [2] = molecular target: T1, FGFR1 (Homo sapiens, UniProt P11362); test: KINOMEscan binding assay; conditions: read-out: % Ctrl @ 10000 nM
T1 sequence (P11362 22-822): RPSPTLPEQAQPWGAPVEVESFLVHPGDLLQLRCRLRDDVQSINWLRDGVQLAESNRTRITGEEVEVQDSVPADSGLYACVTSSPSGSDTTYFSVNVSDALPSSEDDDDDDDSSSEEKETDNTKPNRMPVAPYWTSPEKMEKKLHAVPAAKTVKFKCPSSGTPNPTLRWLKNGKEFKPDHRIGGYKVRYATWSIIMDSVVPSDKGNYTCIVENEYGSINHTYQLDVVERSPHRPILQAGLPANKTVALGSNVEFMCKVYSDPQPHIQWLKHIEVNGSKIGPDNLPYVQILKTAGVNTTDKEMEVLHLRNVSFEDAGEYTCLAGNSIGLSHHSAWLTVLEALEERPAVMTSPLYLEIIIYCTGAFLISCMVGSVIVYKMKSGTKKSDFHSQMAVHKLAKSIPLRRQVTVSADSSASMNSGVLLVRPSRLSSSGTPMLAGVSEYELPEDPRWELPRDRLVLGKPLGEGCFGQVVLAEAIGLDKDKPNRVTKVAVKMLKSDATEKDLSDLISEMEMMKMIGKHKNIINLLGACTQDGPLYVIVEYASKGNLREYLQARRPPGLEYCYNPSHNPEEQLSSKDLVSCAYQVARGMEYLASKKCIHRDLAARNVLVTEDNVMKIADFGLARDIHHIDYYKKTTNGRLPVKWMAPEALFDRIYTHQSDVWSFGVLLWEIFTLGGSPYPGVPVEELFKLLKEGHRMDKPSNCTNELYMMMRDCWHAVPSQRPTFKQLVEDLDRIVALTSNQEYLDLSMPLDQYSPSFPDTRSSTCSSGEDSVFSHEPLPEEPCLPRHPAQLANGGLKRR

LIMK1 = LIMK1 (Homo sapiens, UniProt P53667); test: KINOMEscan binding assay; conditions: read-out: % Ctrl @ 10000 nM
LKB1 = molecular target: T2, LKB1 (Homo sapiens, UniProt Q15831); test: KINOMEscan binding assay; conditions: read-out: % Ctrl @ 10000 nM
T2 construct: T7 phage fusion (most assays) or DNA label after HEK293 expression; purchased DiscoveRx (KINOMEscan, LeadHunter Discovery services); host or cells: T7 phage in E. coli (BL21-derived) or HEK293

MARK1 = MARK1 (Homo sapiens, UniProt Q9P0L2); test: KINOMEscan binding assay; conditions: read-out: % Ctrl @ 10000 nM
MLK2 = MLK2 (Homo sapiens, UniProt Q02779); test: KINOMEscan binding assay; conditions: read-out: % Ctrl @ 10000 nM
NDR1 = NDR1 (Homo sapiens, UniProt Q15208); test: KINOMEscan binding assay; conditions: read-out: % Ctrl @ 10000 nM
NDR2 = NDR2 (Homo sapiens, UniProt Q9Y2H1); test: KINOMEscan binding assay; conditions: read-out: % Ctrl @ 10000 nM
Sequence of NDR2 (Q9Y2H1 whole entry): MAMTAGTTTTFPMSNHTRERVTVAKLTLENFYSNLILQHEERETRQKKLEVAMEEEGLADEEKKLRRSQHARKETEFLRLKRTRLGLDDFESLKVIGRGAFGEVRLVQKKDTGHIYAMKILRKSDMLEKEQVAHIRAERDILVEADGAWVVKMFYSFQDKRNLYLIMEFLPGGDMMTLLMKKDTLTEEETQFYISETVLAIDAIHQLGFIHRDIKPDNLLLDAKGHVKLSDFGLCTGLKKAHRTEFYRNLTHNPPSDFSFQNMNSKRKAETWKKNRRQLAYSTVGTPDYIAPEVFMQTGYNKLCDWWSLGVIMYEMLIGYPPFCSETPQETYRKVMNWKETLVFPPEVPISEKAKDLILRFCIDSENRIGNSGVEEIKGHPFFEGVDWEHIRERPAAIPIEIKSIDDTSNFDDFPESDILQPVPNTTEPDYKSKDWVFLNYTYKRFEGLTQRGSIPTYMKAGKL

PKAC-beta = PKAC-beta (Homo sapiens, UniProt P22694); test: KINOMEscan binding assay; conditions: read-out: % Ctrl @ 10000 nM
RET (M918T) = RET (M918T) (Homo sapiens, UniProt P07949, M918T); test: KINOMEscan binding assay; conditions: read-out: % Ctrl @ 10000 nM
[3] = molecular target: RSK2 Kin.Dom.1-N-terminal (Homo sapiens, UniProt P51812); test: KINOMEscan binding assay; conditions: read-out: % Ctrl @ 10000 nM
[4] = molecular target: RSK3 Kin.Dom.1-N-terminal (Homo sapiens, UniProt Q15349); test: KINOMEscan binding assay; conditions: read-out: % Ctrl @ 10000 nM
Sequence of RSK3 Kin.Dom.1-N-terminal (Q15349 59-318 limits assumed): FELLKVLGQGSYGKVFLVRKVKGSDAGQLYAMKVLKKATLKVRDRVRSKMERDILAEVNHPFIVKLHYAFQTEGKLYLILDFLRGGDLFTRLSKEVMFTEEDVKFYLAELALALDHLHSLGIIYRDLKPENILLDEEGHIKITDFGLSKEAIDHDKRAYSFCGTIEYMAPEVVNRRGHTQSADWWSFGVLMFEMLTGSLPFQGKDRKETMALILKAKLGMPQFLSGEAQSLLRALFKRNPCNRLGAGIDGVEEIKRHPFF

SRPK3 = SRPK3 (Homo sapiens, UniProt Q9UPE1); test: KINOMEscan binding assay; conditions: read-out: % Ctrl @ 10000 nM
TAOK3 = TAOK3 (Homo sapiens, UniProt Q9H2K8); test: KINOMEscan binding assay; conditions: read-out: % Ctrl @ 10000 nM
[5] = molecular target: T3, TYK2 JH2domain-pseudokinase (Homo sapiens, UniProt P29597); test: KINOMEscan binding assay; conditions: read-out: % Ctrl @ 10000 nM
T3 construct: JH2domain-pseudokinase; purchased DiscoveRx (KINOMEscan, LeadHunter Discovery services)

CK1a1 = CK1a1 (Homo sapiens, UniProt P48729); test: Kinase selectivity, % remaining activity; type: biochemical; conditions: 10 μM compound, 10 μM ATP, duplicate
Sequence of CK1a1 (P48729 whole entry): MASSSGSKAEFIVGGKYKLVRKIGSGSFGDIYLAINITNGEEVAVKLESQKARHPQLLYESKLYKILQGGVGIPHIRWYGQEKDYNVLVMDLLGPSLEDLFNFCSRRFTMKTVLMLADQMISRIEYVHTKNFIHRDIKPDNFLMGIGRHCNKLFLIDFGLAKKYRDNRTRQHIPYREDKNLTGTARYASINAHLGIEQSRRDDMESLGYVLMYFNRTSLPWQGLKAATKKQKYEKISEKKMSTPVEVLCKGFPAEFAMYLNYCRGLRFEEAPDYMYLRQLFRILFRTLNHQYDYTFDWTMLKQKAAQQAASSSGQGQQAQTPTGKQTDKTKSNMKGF
Description: (§1) Compounds were tested in single dose duplicate mode at a concentration of 10 μM (in DMSO) and reactions were carried out at 10 μM ATP, Table 3 reports the % of remaining activity (relative to DMSO).

ABL2/ARG = ABL2/ARG (Homo sapiens, UniProt P42684); test: Kinase selectivity, % remaining activity; type: biochemical; conditions: 10 μM compound, 10 μM ATP, duplicate; for remaining activity at 10 µM: read-out: % of remaining activity (relative to DMSO)
Sequence of ABL2/ARG (P42684 whole entry): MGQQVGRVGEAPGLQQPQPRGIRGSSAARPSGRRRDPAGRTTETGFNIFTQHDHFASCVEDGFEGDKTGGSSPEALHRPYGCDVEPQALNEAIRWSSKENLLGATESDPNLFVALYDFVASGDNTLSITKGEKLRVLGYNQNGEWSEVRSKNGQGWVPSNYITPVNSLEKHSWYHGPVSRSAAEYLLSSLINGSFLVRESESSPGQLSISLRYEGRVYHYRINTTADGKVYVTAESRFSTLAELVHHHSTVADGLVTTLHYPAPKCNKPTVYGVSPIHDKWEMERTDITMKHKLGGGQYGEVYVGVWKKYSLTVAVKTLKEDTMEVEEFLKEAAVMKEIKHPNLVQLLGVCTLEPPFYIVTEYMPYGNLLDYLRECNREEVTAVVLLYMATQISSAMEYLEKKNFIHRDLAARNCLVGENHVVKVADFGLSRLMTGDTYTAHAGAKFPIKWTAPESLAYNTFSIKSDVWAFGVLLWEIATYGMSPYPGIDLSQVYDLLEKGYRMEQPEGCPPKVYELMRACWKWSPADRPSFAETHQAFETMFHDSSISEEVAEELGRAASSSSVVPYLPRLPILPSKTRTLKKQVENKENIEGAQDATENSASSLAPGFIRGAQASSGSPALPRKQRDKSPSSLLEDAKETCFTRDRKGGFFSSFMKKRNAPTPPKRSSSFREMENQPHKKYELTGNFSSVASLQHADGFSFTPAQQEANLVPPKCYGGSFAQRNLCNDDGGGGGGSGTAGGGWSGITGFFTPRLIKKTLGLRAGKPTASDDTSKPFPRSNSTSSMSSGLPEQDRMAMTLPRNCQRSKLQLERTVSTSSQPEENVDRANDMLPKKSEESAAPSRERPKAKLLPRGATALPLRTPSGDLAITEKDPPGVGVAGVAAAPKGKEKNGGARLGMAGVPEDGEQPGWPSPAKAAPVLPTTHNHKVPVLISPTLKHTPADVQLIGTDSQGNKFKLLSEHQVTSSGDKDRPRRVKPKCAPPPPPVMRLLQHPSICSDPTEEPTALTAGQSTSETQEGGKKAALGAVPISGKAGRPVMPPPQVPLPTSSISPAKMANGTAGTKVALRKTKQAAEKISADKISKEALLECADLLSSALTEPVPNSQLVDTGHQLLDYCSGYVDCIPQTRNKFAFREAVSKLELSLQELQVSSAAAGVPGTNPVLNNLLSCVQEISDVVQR
Outline: (§2)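 Compound was added at 10 μM from DMSO and each kinase reaction run at 10 μM ATP in duplicate; activity left was then expressed as a percentage of the DMSO-only reaction.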

FGFR1 [6] = molecular target: T1, FGFR1; test: Kinase selectivity, % remaining activity; type: biochemical; conditions: 10 μM compound, 10 μM ATP, duplicate; for remaining activity at 10 µM: read-out: % of remaining activity (relative to DMSO)
Outline: as §2

ROCK1 = ROCK1 (Homo sapiens, UniProt Q13464); test: Kinase selectivity, % remaining activity; type: biochemical; conditions: 10 μM compound, 10 μM ATP, duplicate; for remaining activity at 10 µM: read-out: % of remaining activity (relative to DMSO)
Outline: as §2

[7] = molecular target: CK1d (casein kinase 1 delta) (Homo sapiens, UniProt P48730); test: Kinase selectivity, % remaining activity and IC50; type: biochemical; conditions: 10 μM ATP; for % of remaining activity (relative to DMSO) / remaining activity at 10 µM: CK1d, 10 μM compound, duplicate; for remaining activity at 10 µM: read-out: % of remaining activity (relative to DMSO); for IC50: casein kinase 1 delta, 10-dose, 3 fold serial dilution
Sequence of CK1d (casein kinase 1 delta) (P48730 whole entry): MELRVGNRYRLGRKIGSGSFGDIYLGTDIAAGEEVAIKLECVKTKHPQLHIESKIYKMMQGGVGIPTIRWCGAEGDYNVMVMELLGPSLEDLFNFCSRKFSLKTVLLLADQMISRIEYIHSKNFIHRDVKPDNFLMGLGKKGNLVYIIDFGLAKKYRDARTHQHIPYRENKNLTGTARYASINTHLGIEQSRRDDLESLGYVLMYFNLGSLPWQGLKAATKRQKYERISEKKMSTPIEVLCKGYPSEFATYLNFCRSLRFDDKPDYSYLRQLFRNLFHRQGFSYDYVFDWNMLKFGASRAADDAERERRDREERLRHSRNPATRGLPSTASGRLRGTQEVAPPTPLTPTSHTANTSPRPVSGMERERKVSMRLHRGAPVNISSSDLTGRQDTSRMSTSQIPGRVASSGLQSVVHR
Description: A two-tier strategy to determine the selectivity of compound A was applied: first, the compound was tested at a single concentration (in duplicate) to determine the %-remaining activity of the target kinase. Subsequently, the IC50 of compound A and comparative compounds for casein kinase 1 delta were determined.
as §1
Control compound GW5074 (Tocris®) was tested starting at 20 μM. Reactions were carried out at 10 μM ATP.

DAPK1 = DAPK1 (Homo sapiens, UniProt P53355); test: Kinase selectivity, % remaining activity; type: biochemical; conditions: 10 μM compound, 10 μM ATP, duplicate; for remaining activity at 10 µM: read-out: % of remaining activity (relative to DMSO)
Sequence of DAPK1 (P53355 whole entry): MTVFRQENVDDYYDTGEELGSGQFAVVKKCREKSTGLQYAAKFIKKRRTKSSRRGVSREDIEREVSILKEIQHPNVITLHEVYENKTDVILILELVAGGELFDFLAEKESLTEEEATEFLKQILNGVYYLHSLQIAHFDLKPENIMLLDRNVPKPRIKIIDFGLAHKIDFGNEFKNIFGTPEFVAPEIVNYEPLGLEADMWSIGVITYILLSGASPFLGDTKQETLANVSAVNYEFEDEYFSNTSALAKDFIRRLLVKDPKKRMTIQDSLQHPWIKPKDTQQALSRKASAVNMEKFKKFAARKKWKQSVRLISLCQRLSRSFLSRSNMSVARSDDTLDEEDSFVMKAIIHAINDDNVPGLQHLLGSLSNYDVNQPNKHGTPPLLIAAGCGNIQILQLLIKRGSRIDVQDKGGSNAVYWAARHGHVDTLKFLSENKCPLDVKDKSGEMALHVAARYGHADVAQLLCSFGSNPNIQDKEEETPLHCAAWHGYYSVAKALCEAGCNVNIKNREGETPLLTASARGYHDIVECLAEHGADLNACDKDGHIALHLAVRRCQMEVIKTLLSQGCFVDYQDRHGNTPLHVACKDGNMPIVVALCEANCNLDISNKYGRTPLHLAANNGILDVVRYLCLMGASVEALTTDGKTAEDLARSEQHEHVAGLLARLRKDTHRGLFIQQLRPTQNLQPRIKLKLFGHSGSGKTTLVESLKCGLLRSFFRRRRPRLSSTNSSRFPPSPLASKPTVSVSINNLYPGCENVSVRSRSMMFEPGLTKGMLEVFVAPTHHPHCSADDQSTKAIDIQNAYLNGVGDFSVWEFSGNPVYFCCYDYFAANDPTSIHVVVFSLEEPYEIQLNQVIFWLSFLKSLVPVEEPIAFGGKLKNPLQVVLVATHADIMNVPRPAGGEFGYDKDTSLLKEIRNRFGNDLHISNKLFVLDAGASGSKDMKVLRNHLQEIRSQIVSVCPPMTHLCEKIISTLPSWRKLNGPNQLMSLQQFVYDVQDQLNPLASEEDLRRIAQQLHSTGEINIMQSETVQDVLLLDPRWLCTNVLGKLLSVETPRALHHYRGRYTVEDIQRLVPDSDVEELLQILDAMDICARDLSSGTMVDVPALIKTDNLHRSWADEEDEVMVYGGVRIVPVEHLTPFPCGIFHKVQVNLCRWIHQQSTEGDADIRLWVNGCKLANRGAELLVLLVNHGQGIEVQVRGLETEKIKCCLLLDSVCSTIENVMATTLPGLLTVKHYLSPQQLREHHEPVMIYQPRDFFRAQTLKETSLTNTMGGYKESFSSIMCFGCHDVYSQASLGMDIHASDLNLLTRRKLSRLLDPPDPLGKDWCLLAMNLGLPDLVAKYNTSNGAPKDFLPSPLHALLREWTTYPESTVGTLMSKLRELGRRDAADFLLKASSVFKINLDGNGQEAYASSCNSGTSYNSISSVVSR
Outline: as §2

[8] = CK1a1, read-out: % of remaining activity (relative to DMSO)

Row | Structure (SMILES) | Escape latency (time to reach the target), Mean ± SEM, Day 1 [1] | Path length to reach the target, Mean ± SEM, Day 1 [1] | Escape latency (time to reach the target), Mean ± SEM, Day 2 [1] | Path length to reach the target, Mean ± SEM, Day 2 [1] | Escape latency (time to reach the target), Mean ± SEM, Day 3 [1] | Path length to reach the target, Mean ± SEM, Day 3 [1] | Escape latency (time to reach the target), Mean ± SEM, Day 4 [1] | Path length to reach the target, Mean ± SEM, Day 4 [1] | remaining binding at 10 µM (CDK11) | remaining binding at 10 µM (CDK2) | remaining binding at 10 µM (CLK3) | remaining binding at 10 µM (FGFR1 [2]) | remaining binding at 10 µM (LIMK1) | remaining activity at 10 µM (CK1a1; [8]) | remaining activity at 10 µM (ABL2/ARG) | remaining activity at 10 µM (FGFR1 [6]) | remaining activity at 10 µM (ROCK1) | remaining activity at 10 µM [7] | IC50 [7] | remaining activity at 10 µM (DAPK1) | other results
1 | Nc1ncc(-c2nc3ccccc3o2)c(-c2ccncc2)n1 [Comparative Compound 324, 5-(1,3-benzoxazol-2-yl)-4-(pyridine-4-yl)pyrimidin-2-amine] | 54.9 ± 2.66 s | 8.81 ± 0.55 meter | 46.6 ± 3.82 s | 6.77 ± 0.64 meter | 39.8 ± 3.95 s | 5.25 ± 0.58 meter | 36.9 ± 3.87 s | 5.17 ± 0.62 meter | 100% | 100% | 99% | 98% | 100% | 65.7% | 101% | 104% | 109% | 13.3% | 483 nM | – | remaining binding at 10 µM (LKB1): 85%; remaining binding at 10 µM (MARK1): 100%; remaining binding at 10 µM (MLK2): 100%; remaining binding at 10 µM (NDR1): 73%; remaining binding at 10 µM (NDR2): 96%; remaining binding at 10 µM (PKAC-beta): 95%; remaining binding at 10 µM (RET (M918T)): 88%; remaining binding at 10 µM [3]: 80%; remaining binding at 10 µM [4]: 100%; remaining binding at 10 µM (SRPK3): 99%; remaining binding at 10 µM (TAOK3): 91%; remaining binding at 10 µM [5]: 66%; % of remaining activity (relative to DMSO) (CK1a1; CK1a1, listed as Cmp 324): 58.48%; % of remaining activity (relative to DMSO) (ABL2/ARG; listed as Cmp 324): 96.78%; % of remaining activity (relative to DMSO) (FGFR1 [6]; listed as Cmp 324): 108.45%; % of remaining activity (relative to DMSO) (ROCK1; listed as Cmp 324): 109.68%; % of remaining activity (relative to DMSO) ([7]; listed as Cmp 324): 11.87%
2 | CNc1c(C(N)=O)c2ccccn2c1C(=O)c1ccc(F)cc1 [Compound A, 2-methyl-amino-3-[(4-fluorophenyl)carbonyl]indolizine-1-carboxamide] | 58.1 ± 1.44 s | 9.20 ± 0.46 meter | 53.7 ± 2.41 s | 8.60 ± 0.52 meter | 49.4 ± 3.23 s | 7.05 ± 0.62 meter | 45.4 ± 3.22 s | 6.94 ± 0.62 meter | 95% | 85% | 94% | 72% | 100% | 5.17% | 71.3% | 95.7% | 95.5% | 1.15% | 17.4 nM | 134% | remaining binding at 10 µM (LKB1): 85%; remaining binding at 10 µM (MARK1): 99%; remaining binding at 10 µM (MLK2): 91%; remaining binding at 10 µM (NDR1): 74%; remaining binding at 10 µM (NDR2): 85%; remaining binding at 10 µM (PKAC-beta): 63%; remaining binding at 10 µM (RET (M918T)): 56%; remaining binding at 10 µM [3]: 59%; remaining binding at 10 µM [4]: 83%; remaining binding at 10 µM (SRPK3): 92%; remaining binding at 10 µM (TAOK3): 93%; remaining binding at 10 µM [5]: 86%; % of remaining activity (relative to DMSO) (CK1a1; CK1a1, listed as Cmp A): 5.37%; % of remaining activity (relative to DMSO) (ABL2/ARG; listed as Cmp A): 70.98%; % of remaining activity (relative to DMSO) (DAPK1; listed as Cmp A): 124.50%; % of remaining activity (relative to DMSO) (FGFR1 [6]; listed as Cmp A): 95.15%; % of remaining activity (relative to DMSO) (ROCK1; listed as Cmp A): 96.14%; % of remaining activity (relative to DMSO) ([7]; listed as Cmp A): 0.98%
3 | Nc1ncnc2c1c(COc1cccc(Cl)c1)nn2C1CCOCC1 [PF4800567, 3-[(3-Chlorophenoxy)methyl]-1-(tetrahydro-2H-pyran-4-yl)-1H-pyrazolo[3,4-d]pyrimidin-4-amine] | 51.1 ± 3.10 s | 8.00 ± 0.54 meter | 50.0 ± 3.49 s | 7.51 ± 0.56 meter | 43.6 ± 3.86 s | 5.83 ± 0.61 meter | 44.0 ± 3.72 s | 5.70 ± 0.58 meter | – | – | – | – | – | – | 68.4% | 80.8% | 95.2% | 8.41% | – | 92.5% | remaining activity at 10 µM (CK1a1; read-out: % of remaining activity (relative to DMSO), CK1a1): 29.3%
4 | COc1ccc(C=C2N=C(c3cccs3)OC2=O)cc1 [Comparative Compound 315, 4-((4-methoxyphenyl)methylene)-2-(2-thienyl)-5(4H)-oxalone] | – | – | – | – | – | – | – | – | – | – | – | – | – | 33.6% | 83.4% | 102% | 93.4% | 2.23% | 435 nM | 96% | % of remaining activity (relative to DMSO) (CK1a1; CK1a1, listed as Cmp 315): 44.41%; % of remaining activity (relative to DMSO) (ABL2/ARG; listed as Cmp 315): 89.19%; % of remaining activity (relative to DMSO) (DAPK1; listed as Cmp 315): 90.84%; % of remaining activity (relative to DMSO) (FGFR1 [6]; listed as Cmp 315): 101.65%; % of remaining activity (relative to DMSO) (ROCK1; listed as Cmp 315): 90.20%; % of remaining activity (relative to DMSO) ([7]; listed as Cmp 315): 1.38%
